Measurements as given in patent US12357695B2, “Peptides and nanoparticles for intracellular delivery of molecules” (AADIGEN, LLC, priority 2019, dated 2025).
Square brackets hold non-standard residues; d marks the D form. Ends that are not written are not given here. Stearyl = stearyl group covalently linked to the N-terminus; Aun = NCCCCCCCCCCC(=O)O; βAla = NCCC(=O)O

How the values were obtained:
[1] = tested on: 293T cells; experiment: Cellular delivery of pGL4 plasmid DNA expressing Luciferase, luciferase expression at 72 hrs; assay type: cell-based; conditions: for reduction of efficiency / luciferase expression in the presence of serum: complexes incubated 3 hrs in 25% serum prior transfection; for reduction of efficiency / luciferase expression in the presence of serum / reduction of efficiency / luciferase expression in heparan sulfate: pGL4 plasmid; for reduction of efficiency / luciferase expression in heparan sulfate: complexes incubated 3 hrs with heparan sulfate prior transfection; for reduction of ADGN-100 efficiency by modification / luciferase expression: 0.15 μg pGL4 plasmid; for reduction of ADGN-100 efficiency by modification: absence of serum or heparan sulfate
Procedure: FIGS. 2A-2C show luciferase expression in 293T cells treated with ADGN-peptide/pGL4 plasmid DNA complexes. 293T cells cultured in 48 well plates were transfected with ADGN-peptide nanoparticles. ADGN-100, ADGN-106, ADGN-100RI, ADGN-106RI, ADGN-100 Stearyl, ADGN-Hydro1, ADGN-Hydro2, ADGN-Hydro3, ADGN-Hydro4, ADGN-Hydro5, and ADGN-Hydro6 containing 0.17 μg pGL4 plasmid DNA were formed in sterile water, diluted in sterile water containing 5% Sucrose. ADGN-peptide nanoparticles were evaluated prior (FIG. 2A) and after filtration with 0.45 μm PES filters (FIG. 2B). FIG. 2C impact of peGylated ADGN-100 on the transfection efficiency. pGL4 luc plasmid (0.15 μg) were associated to ADGN-100 solution containing 5 to 50% of ADGN-100-PEG or to ADGN-100PEG. ADGN/pGL4 plasmid DNA complexes were incubated for 3 hrs in the presence of either 25% serum or heparan sulfate prior transfection. Luciferase expression was monitored 72 hours post transfection and results were reported as RLU (luminescence):mg of protein.
Complex formation with plasmid DNA. The following protocols were used for the transfection of 2-5 106 Cells or Cells at confluency of about 70-80% cultured in 24 well plates. ADGN peptide/plasmid DNA pGL4 particles were prepared at a 20:1 molar ratio of ADGN-Peptide/pGL4. using (0.2 μg). PGL4 plasmid (0.15 μg) was diluted in 20 μl of sterile water (GIBCO) at room temperature. 10 μl Final Peptide Solution was added to obtain a total volume of 20 μl. The volume was adjusted to 50 μl with sterile water and was mixed gently with vortex 1 min low speed and incubated 30 min at room temperature. Then the volume was made up to 100 μl by adding sterile water containing 5% sucrose, and the solution was mixed gently with vortex 1 min low speed and incubate 5 min at 37° C. and then was proceeded to cell transfection.
(§1) Transfection protocol. Protocol is reported for 24 well plate format. Cells were cultured in Dulbecco's Modified Eagle's Medium (DMEM), supplemented with 2 mM glutamine, 1% antibiotics (streptomycin 10,000 μg/mL, penicillin, 10,000 IU/mL) and 10% (w/v) foetal calf serum (FCS), at 37° C. in a humidified atmosphere containing 5% CO2. 24 well plates seeded with 150,000 cells the day prior to transfection were grown to 50-60% confluence and set up to be at about 70% confluences at the time of transfection. Before transfection, cells were washed twice with DMEM. Cells were then overlaid with 0.1 ml of ADGN-peptide/cargo complex solution containing 0.25 μg mRNA, 0.15 μg plasmid DNA or 10-25 nM siRNA, mixed gently, and incubated for 10 min at 37° C. 0.2 mL of fresh DMEM, were added and cells were incubated for 20 min at 37° C. 1 mL of complete DMEM containing 15% FCS were then added in order to reach a final FCS concentration of 10%, without removing the overlay of ADGN-peptide/cargo complexes. Cells were returned to the incubator (37° C., 5% CO2) and 72 hrs post transfection.
ADGN-peptides were evaluated for cellular delivery of pGL4 plasmid DNA expressing Luciferase in 293T cells. Luc pGL4 plasmid (0.15 μg) in sterile water (GIBCO) were mixed with ADGN-100, ADGN-100RI, ADGN-106, ADGN-106RI, ADGN-100 Stearyl, ADGN-100Hydro1, ADGN-100Hydro2, ADGN-100Hydro4, ADGN-100Hydro3, ADGN-100Hydro5 and ADGN-100Hydro6. ADGN-peptide/mRNA complexes were filtered with 0.45 μm PES filter. In order to evaluate the stability of the ADGN/pGL4 plasmid complexes in high serum and cell culture conditions, the complexes were incubated for 3 hrs in the presence of either 25% serum or heparan sulfate prior transfection, then 293T cells were transfected and Luciferase expression was monitored at 72 hrs.

[2] = tested on: A375/Luc cells; experiment: Cellular delivery of siRNA targeting Luciferase, luciferase silencing at 48 hrs; assay type: cell-based; conditions: for reduction of ADGN-100 or ADGN-106 efficiency by modification / reduction of level of luciferase (siRNA mediated silencing): absence of serum treatment; for reduction of efficiency / siRNA mediated luciferase silencing in the presence of serum: complexes incubated 3 hrs in 25% serum; for reduction of luciferase expression level: presence of serum
Procedure: FIGS. 3A-3C show luciferase expression in A375/Luc cells treated with ADGN-peptide/siRNA complexes. A375/Luc cells cultured in 48 well plates were transfected with ADGN-peptide nanoparticles. ADGN-100, ADGN-106, ADGN-100RI, ADGN-106RI, ADGN-100 Stearyl, ADGN-Hydro1, ADGN-Hydro2, ADGN-Hydro3, ADGN-Hydro4, ADGN-Hydro5, ADGN-Hydro6 and ADGN-peptide/ADGN-100PEG 10% nanoparticles containing 10 nM or 25 nM siRNA were formed in sterile water, diluted in sterile water containing 5% Sucrose and filtered with 0.45 μm PES filters. FIG. 3C impact of peGylated ADGN-100 on the transfection efficiency. siRNA Luc (10 nM and 25 nM) were associated to ADGN-100 solution containing 5 to 50% of ADGN-100-PEG or to ADGN-100PEG. ADGN/siRNA complexes were incubated for 3 hrs in the presence of 25% serum prior transfection. Luciferase expression was monitored 48 hours post transfection and results were reported as RLU (luminescence):mg of protein.
Complex formation with siRNA. The following protocols were used for the transfection of 2-5 106 Cells or Cells at confluency of about 70-80% cultured in 24 well plates. ADGN peptide/siRNA Luc particles were prepared at a 20:1 molar ratio of ADGN-Peptide/pGL4. using 20 nM siRNA. The siRNA duplex (10 and 25 nM) was diluted in 20 μl of sterile water (GIBCO) at room temperature. 1.5 or 3 μl of a Final Peptide Solution (55 μM) was added to obtain a total volume of 20 μl. The volume was adjusted to 50 μl with sterile water and was mixed gently with vortex 1 min low speed and incubated 30 min at room temperature. Then the volume was made up to 100 μl by adding sterile water containing 5% sucrose, and the solution was mixed gently with vortex 1 min low speed and incubate 5 min at 37° C. and then was proceeded to cell transfection.
as §1
ADGN-peptides were evaluated for cellular delivery of siRNA duplex targeting Luciferase in A375/Luc cells. siRNA targeting luciferase (10 and 25 nM) in sterile water (GIBCO) were mixed with ADGN-100, ADGN-100RI, ADGN-106, ADGN-106RI, ADGN-100 Stearyl, ADGN-100Hydro1, ADGN-100Hydro2, ADGN-100Hydro4, ADGN-100Hydro3, ADGN-100Hydro5 and ADGN-100Hydro6. ADGN-peptide/siRNA complexes were filtered with 0.45 μm PES filter. In order to evaluate the stability of the ADGN/siRNA complexes in high serum conditions, the complexes were incubated for 3 hrs in the presence of 25% serum, then A375/Luc cells were transfected and Luciferase expression was monitored at 48 hrs.

For “Ac-GYVS-(G)4-KWRSALWRWRLWRVRSWSR-NH2 (Ac-GYVSGGGGKWRSALWRWRLWRVRSWSR-NH2) [ADGN-100 hydro-2]”, the “reduction of efficiency / luciferase expression in the presence of serum” value [1] was “do not significantly improved transfection” and the “reduction of efficiency / luciferase expression in heparan sulfate” value [1] was “do not significantly improved transfection”.
For “Ac-GYVS-Aun-KWRSALWRWRLWRVRSWSR-NH2 (Ac-GYVS[Aun]KWRSALWRWRLWRVRSWSR-NH2; SMILES CC(=O)NCC(=O)N[C@@H](Cc1ccc(O)cc1)C(=O)N[C@H](C(=O)N[C@@H](CO)C(=O)NCCCCCCCCCCC(=O)N[C@@H](CCCCN)C(=O)N[C@@H](Cc1c[nH]c2ccccc12)C(=O)N[C@@H](CCCNC(=N)N)C(=O)N[C@@H](CO)C(=O)N[C@@H](C)C(=O)N[C@@H](CC(C)C)C(=O)N[C@@H](Cc1c[nH]c2ccccc12)C(=O)N[C@@H](CCCNC(=N)N)C(=O)N[C@@H](Cc1c[nH]c2ccccc12)C(=O)N[C@@H](CCCNC(=N)N)C(=O)N[C@@H](CC(C)C)C(=O)N[C@@H](Cc1c[nH]c2ccccc12)C(=O)N[C@@H](CCCNC(=N)N)C(=O)N[C@H](C(=O)N[C@@H](CCCNC(=N)N)C(=O)N[C@@H](CO)C(=O)N[C@@H](Cc1c[nH]c2ccccc12)C(=O)N[C@@H](CO)C(=O)N[C@@H](CCCNC(=N)N)C(N)=O)C(C)C)C(C)C) [ADGN-100 hydro-6]”, the “reduction of ADGN-100 efficiency by modification” value (shortened to “reduction of ADGN-100 efficiency”) [1] was “do not affected”, the “reduction of ADGN-100 or ADGN-106 efficiency by modification” value [2] was “do not affected” and the “reduction of efficiency / siRNA mediated luciferase silencing in the presence of serum” value [2] was 20%.
With “Stearyl-βA-KWRSALWRWRLWRVRSWSR-NH2 (Stearyl-[βAla]KWRSALWRWRLWRVRSWSR-NH2; not fully specified; printed as Stearyl-βA-KWRSALWRWRLWRVRSWSR-NH2) [ADGN-100 Stearyl]” the “reduction of ADGN-100 efficiency” value [1] was “do not affected”, the “reduction of ADGN-100 or ADGN-106 efficiency by modification” value [2] was “do not affected” and the “reduction of efficiency / siRNA mediated luciferase silencing in the presence of serum” value [2] was 20%.
For “akwllrwlsrwlrwlarwlr ([dA][dK][dW][dL][dL][dR][dW][dL][dS][dR][dW][dL][dR][dW][dL][dA][dR][dW][dL][dR]; also: retro-inverso) [ADGN-106-RI]”, the luciferase expression [1] was “poor luciferase expression”, the “reduction of luciferase expression level” value ([2]; 10 nM siRNA) was 77% and the “reduction of luciferase expression level” value ([2]; 25 nM siRNA) was 95%. The “reduction of ADGN-100 or ADGN-106 efficiency by modification” value [2] was “do not affected” and the “reduction of efficiency / siRNA mediated luciferase silencing in the presence of serum” value [2] was “not affected by the presence of serum”.
In the case of “rswsrvrwlrwrwgasrwk ([dR][dS][dW][dS][dR][dV][dR][dW][dL][dR][dW][dR][dW]G[dA][dS][dR][dW][dK]; also: retro-inverso) [ADGN-100-RI]”, the “reduction of ADGN-100 efficiency” value [1] is reported as “do not affected”, the “reduction of efficiency / luciferase expression in the presence of serum” value [1] is reported as 25% and the “reduction of efficiency / luciferase expression in heparan sulfate” value [1] is reported as “less than 10%”. For the same substance, the “reduction of luciferase expression level” value ([2]; 10 nM siRNA) was 77%, the “reduction of luciferase expression level” value ([2]; 25 nM siRNA) was 95% and the “reduction of ADGN-100 or ADGN-106 efficiency by modification” value [2] was “do not affected”. For the same substance, the “reduction of efficiency / siRNA mediated luciferase silencing in the presence of serum” value [2] was “not affected by the presence of serum”.
With “βAKWRSAGWRWRLW RVRSWSR (AKWRSAGWRWRLWRVRSWSR; N-terminal beta-alanine; VARIANT 1 beta-A) [ADGN-100]” the luciferase expression [1] was “high level of luciferase expression”, the “reduction of efficiency / luciferase expression in the presence of serum” value [1] was 90% and the “reduction of efficiency / luciferase expression in heparan sulfate” value [1] was 50%. For the same substance, the “reduction of level of luciferase (siRNA mediated silencing)” value (from here on “reduction of level of luciferase”) ([2]; 10 nM siRNA) was 78%, the “reduction of level of luciferase” value ([2]; 25 nM siRNA) was 93% and the “reduction of efficiency / siRNA mediated luciferase silencing in the presence of serum” value [2] was 90%.
“βALWRALWRLWRSLWRLLWKA ([βAla]LWRALWRLWRSLWRLLWKA) [ADGN-106]” was tested, and the luciferase expression [1] was “poor luciferase expression”, the “reduction of level of luciferase” value ([2]; 10 nM siRNA) was 78% and the “reduction of level of luciferase” value ([2]; 25 nM siRNA) was 93%. For the same substance, the “reduction of efficiency / siRNA mediated luciferase silencing in the presence of serum” value [2] was 90%.
